Assay results: patent US8410170B2, “Use of isothiocyanates compounds in treating prostatic diseases and skin cancer” (Wuxi JC Pharmaceutical Technology Co., Ltd., priority 2005, dated 2013)

Legend:
[1] = tested on: non-bacterial prostatitis; assay: Therapeutic effects on non-bacterial prostatitis (Xiaozhiling injection into prostate); type: in vivo, SD rats; details: for urine, 1 h Period / urine, 2 h Period / urine, 3 h Period: last dosing day
Protocol: Fifty-five male SD rats were randomly divided into 6 groups, 9 each, except the negative control group for which 10 animals were used. All animals from group 1 to 6 were anesthetized by injection of ketamine under sterile conditions and incised around 1.5 cm with a sterilized surgery scalpel at middle of abdomen. Animals in Group 1 were injected penicillin to prevent infection, and given distill water, 10 ml/kg, once a day, 5 times a week for 5 weeks. Groups from 2 to 6 injected 25% Xiaozhiling into left and right lobes of prostate, 0.1 ml for each lobe and sew the muscle and skin with #1 silk thread. The animals were then given penicillin to prevent infectious. Group 2 was served as negative control group in which animals were treated with distill water by gavage 24 hrs after the Xiaozhiling injection, once a day, 5 times a week for 5 weeks. Group 3 was served as positive control group in which animals were treated with GENURIN by gavage 24 hrs after the Xiaozhiling injection at dose of 60 mg/kg, once a day, 5 times a week (escaping weekend) for 5 weeks. […] On the last dosing day, urine samples from different groups that covered periods of 1, 2 and 3 hrs were collected.
Twenty-four hrs after the last dose, the animals were euthanized and weighed. Volume and weight of prostate were measured. The averages of the prostate weight/volume and organ coefficient (average weight of prostate/average of body weight) were calculated, and statistical analysis performed (t test).
Prostate tissues of animals from different groups were embedded with paraffin. The tissue sections were stained with H&E for histpathological examination by an anatomical pathologist.

[2] = In vitro dissolution (paddle method, HPLC); type: physicochemical; details: 500 ml water, 37° C., 45 min, paddle 200 r/min
Protocol: Dissolution Measurement: Dissolution rates of the compositions were measured according to the procedures described in the Chinese Pharmacopeia 2005, Appendix XC, Method 2: Paddle Determination. Briefly, samples are added into 500 ml of de-aired, and deionized water which is kept at 37±0.5° C. for 45 min while the paddle rotates at 200 r/min. Take samples and let the sample be passed through the 0.8 μm filter membrane, and analyzed by HPLC. The dissolution rate was then calculated.

Sp1 = assay: Western blot to detect Sp1 in LNCaP cells; type: cell-based, human; details: 24 hrs
Protocol: The cells were harvested, washed and total cellular proteins were extracted as described previously (as Example 2). Fifty μg proteins were then subjected to electrophoresis in SDS-PAGE, electro-transferred to nitrocellulose filters, and immunoblotted initially with antibodies against AR, Sp1, and PSA. The same membranes were stripped and re-probed with β-actin for loading control. The result was recorded by ECL films.

## S=C=NCCc1ccccc1 [PEITC, phenethyl isothiocyanate]
[1]; PEITC 2 mg/kg, 9 animals
  Edema: no. of animals with score ++: 0
  Edema: no. of animals with score +++: 0
  Fibrous Exudation: no. of animals with score 0: 5
  Fibrous Exudation: no. of animals with score +: 4
  Fibrous Exudation: no. of animals with score ++: 0
  Fibrous Exudation: no. of animals with score +++: 0
  Histopathological score of prostatitis, Overall Average X ± SD: 2.16 ± 1.52
  Hyperblastosis: no. of animals with score 0: 7
  Hyperblastosis: no. of animals with score +: 2
  Hyperblastosis: no. of animals with score ++: 0
  Hyperblastosis: no. of animals with score +++: 0
  Inflammatory Infiltration: no. of animals with score 0: 6
  Inflammatory Infiltration: no. of animals with score +: 3
  Inflammatory Infiltration: no. of animals with score ++: 0
  Inflammatory Infiltration: no. of animals with score +++: 0
[1]; PEITC 2 mg/kg
  urine, 1 h Period: 6.6 ± 2.1 mL
  urine, 2 h Period: 8.7 ± 1.7 mL
  urine, 3 h Period: 9.2 ± 2.7 mL
[1]; PEITC 4 mg/kg gavage (Example 13-11), 5 weeks
  Average of Body Weight: 370 ± 24.8 g
[1]; PEITC 4 mg/kg gavage, 5 weeks
  Average Volume of Prostate: 0.78 ± 0.10 cm^3
  Average Weight of Prostate: 0.72 ± 0.16 g
  Inhibition of Organ-coefficient: 26.15%
  Organ Coefficient: 0.192 ± 0.03 %
[1]; PEITC 4 mg/kg, 9 animals
  Bleeding: no. of animals with score 0: 6
  Bleeding: no. of animals with score +: 3
  Bleeding: no. of animals with score ++: 0
  Bleeding: no. of animals with score +++: 0
  Chronic Inflammatory Infiltration: no. of animals with score 0: 9
  Chronic Inflammatory Infiltration: no. of animals with score +: 0
  Chronic Inflammatory Infiltration: no. of animals with score ++: 0
  Chronic Inflammatory Infiltration: no. of animals with score +++: 0
  Congestion: no. of animals with score 0: 7
  Congestion: no. of animals with score +: 2
  Congestion: no. of animals with score ++: 0
  Congestion: no. of animals with score +++: 0
  Edema: no. of animals with score 0: 5
  Edema: no. of animals with score +: 4
  Edema: no. of animals with score ++: 0
  Edema: no. of animals with score +++: 0
  Fibrous Exudation: no. of animals with score 0: 4
  Fibrous Exudation: no. of animals with score +: 4
  Fibrous Exudation: no. of animals with score ++: 1
  Fibrous Exudation: no. of animals with score +++: 0
  Histopathological score of prostatitis, Overall Average X ± SD: 1.72 ± 0.79
  Hyperblastosis: no. of animals with score 0: 9
  Hyperblastosis: no. of animals with score +: 0
  Hyperblastosis: no. of animals with score ++: 0
  Hyperblastosis: no. of animals with score +++: 0
  Inflammatory Infiltration: no. of animals with score 0: 7
  Inflammatory Infiltration: no. of animals with score +: 2
  Inflammatory Infiltration: no. of animals with score ++: 0
  Inflammatory Infiltration: no. of animals with score +++: 0
[1]; PEITC 4 mg/kg, FIG. 7.3
  histopathological scores versus untreated prostatitis animals (slide): less severe
[1]; PEITC 4 mg/kg
  urine, 1 h Period: 5.7 ± 2.2 mL
  urine, 2 h Period: 9.4 ± 1.5 mL
  urine, 3 h Period: 10.4 ± 1.9 mL
[2]
  Dissolution Rate: 0%
Sp1
  expression of Sp1 (Western blot): significantly inhibited
